In patent publication US20230278954A1, “BRANCHED LIPID COMPOUDS” (priority 2020, published 2023):
Values joined by “and” are separate entries in the source; they are usually repeats but may differ in a detail not shown here. Equal entries are not always repeated.

Experiments:
human TLR2 = molecular target: T1, human TLR2 (Homo sapiens, UniProt O60603); assay: Activation of human TLR2 III: HEK-Blue hTLR2 dose response (SEAP reporter); assay type: cell-based; settings: for optical density (650 nm): screenings 1-3; for stimulatory / agonist activity for hTLR2 (in words) / fold induction at 120 fg/mL / fold induction at 490 fg/mL / fold induction at 1.95 pg/mL / fold induction at 7.81 pg/mL / fold induction at 31.25 pg/mL / fold induction at 0.000125 µg/mL / fold induction at 0.0005 µg/mL: HEK-Blue hTLR2; for fold induction at 120 fg/mL / fold induction at 490 fg/mL / fold induction at 1.95 pg/mL / fold induction at 7.81 pg/mL / fold induction at 31.25 pg/mL / fold induction at 0.000125 µg/mL / fold induction at 0.0005 µg/mL: read-out: Fold Induction (ratio of average induced value to average non-induced value); for EC50: agonism of hTLR2, HEK-Blue hTLR2
T1 construct: expressed in transfected cells; host or cells: HEK-Blue hTLR2 cells
Experimental: (§1) Toll-Like Receptor (TLR) stimulation is tested by assessing NF-KB activation in the TLR expressing cell lines. HEK-Blue h/mTLR2 cells have been stably transfected with human or mouse TLR2 and CD14. The activity of the test articles are tested on human and mouse TLR2, as potential agonists. The test articles are evaluated at seven concentrations and compared to control ligands (see list below). These steps are performed in triplicate.
(§2) A 5 µg/mL working stock was then prepared for each compound from the 20 µg/mL dilution in sterile PBS. Starting from the 5 µg/mL working stock, a series of six 1:4 serial dilutions were made by mixing 100 µL of the previous highest dilution with 300 µL sterile PBS.
(§3) The secreted embryonic alkaline phosphatase (SEAP) reporter is under the control of a promoter inducible by the transcription factor NF-κB. This reporter gene allows the monitoring of signaling through the TLR, based on the activation of NF-κB. In a 96-well plate (200 µL total volume) containing the appropriate cells (50,000 - 75,000 cells/well), 20 µL of the test article or the positive control ligand (HKLC) is added to the wells. The media added to the wells is designed for the detection of NF-κB induced SEAP expression. After a 16-24-hour incubation the optical density (OD) is read at 650 nm on a Molecular Devices SpectraMax 340PC absorbance detector.

mouse TLR2 = molecular target: T2, mouse TLR2 (Mus musculus, UniProt Q9QUN7); assay: HEK-Blue mTLR2 dose response (SEAP reporter); assay type: cell-based
T2 construct: expressed in transfected cells; host or cells: HEK-Blue mTLR2 cells
Experimental: as §1, §2, §3

HEK-Blue Null1 cells = assay: TLR- control cell line HEK-Blue Null1 (control for human TLR2); assay type: cell-based
Experimental: as §3

HEK-Blue Null2 cells = assay: TLR- control cell line HEK-Blue Null2 (control for mouse TLR2); assay type: cell-based
Experimental: as §3

[1] = Stability III: accelerated aging at 40° C., 3 or 6 weeks, HPLC recovery; assay type: physicochemical
Experimental: Recovery of the target compound was assessed by HPLC, and the values as a percentage of the reference sample are reported in Table 14 and in FIG. 5.

T1 sequence (O60603 21-784): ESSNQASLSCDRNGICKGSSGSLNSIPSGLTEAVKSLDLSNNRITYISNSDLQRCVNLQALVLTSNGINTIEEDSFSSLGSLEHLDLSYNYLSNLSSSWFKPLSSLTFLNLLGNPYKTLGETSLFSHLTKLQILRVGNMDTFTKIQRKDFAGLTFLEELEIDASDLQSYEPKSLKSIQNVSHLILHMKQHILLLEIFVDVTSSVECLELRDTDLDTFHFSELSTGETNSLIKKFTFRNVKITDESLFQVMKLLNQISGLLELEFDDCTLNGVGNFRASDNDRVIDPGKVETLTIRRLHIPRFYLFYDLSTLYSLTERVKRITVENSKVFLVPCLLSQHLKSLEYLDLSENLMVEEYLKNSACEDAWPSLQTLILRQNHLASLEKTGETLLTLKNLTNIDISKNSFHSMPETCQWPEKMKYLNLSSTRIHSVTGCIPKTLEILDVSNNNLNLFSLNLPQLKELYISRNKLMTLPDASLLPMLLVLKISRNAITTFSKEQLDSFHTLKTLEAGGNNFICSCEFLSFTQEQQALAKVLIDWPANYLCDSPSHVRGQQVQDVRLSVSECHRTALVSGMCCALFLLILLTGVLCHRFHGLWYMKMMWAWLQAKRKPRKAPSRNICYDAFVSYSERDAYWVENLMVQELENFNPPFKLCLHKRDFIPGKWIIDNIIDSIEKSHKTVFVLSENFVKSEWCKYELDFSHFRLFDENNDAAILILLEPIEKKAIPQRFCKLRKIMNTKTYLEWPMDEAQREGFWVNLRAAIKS
T1 sequence (Q9Y2C9 32-796 partner): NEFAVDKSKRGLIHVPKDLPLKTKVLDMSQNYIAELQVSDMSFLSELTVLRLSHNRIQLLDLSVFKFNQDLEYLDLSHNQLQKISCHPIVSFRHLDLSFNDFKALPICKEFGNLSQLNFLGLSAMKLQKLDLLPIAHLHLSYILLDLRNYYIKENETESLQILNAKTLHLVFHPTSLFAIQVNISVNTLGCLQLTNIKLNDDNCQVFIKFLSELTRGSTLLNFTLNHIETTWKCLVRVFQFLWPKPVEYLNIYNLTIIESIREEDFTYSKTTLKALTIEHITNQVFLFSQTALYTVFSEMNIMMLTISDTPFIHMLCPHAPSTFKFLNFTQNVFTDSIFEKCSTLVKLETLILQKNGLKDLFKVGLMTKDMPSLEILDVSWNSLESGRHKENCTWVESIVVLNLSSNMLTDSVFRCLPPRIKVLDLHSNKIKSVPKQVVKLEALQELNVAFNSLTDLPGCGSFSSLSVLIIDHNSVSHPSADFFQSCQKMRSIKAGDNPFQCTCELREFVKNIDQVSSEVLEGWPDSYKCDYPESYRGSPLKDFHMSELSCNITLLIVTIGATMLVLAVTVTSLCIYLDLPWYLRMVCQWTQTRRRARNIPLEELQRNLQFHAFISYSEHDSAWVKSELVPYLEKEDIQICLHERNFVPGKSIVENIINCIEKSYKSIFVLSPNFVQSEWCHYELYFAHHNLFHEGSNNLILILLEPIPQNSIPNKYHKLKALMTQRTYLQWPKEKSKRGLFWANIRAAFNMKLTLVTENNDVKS
T2 sequence (Q9QUN7 25-784): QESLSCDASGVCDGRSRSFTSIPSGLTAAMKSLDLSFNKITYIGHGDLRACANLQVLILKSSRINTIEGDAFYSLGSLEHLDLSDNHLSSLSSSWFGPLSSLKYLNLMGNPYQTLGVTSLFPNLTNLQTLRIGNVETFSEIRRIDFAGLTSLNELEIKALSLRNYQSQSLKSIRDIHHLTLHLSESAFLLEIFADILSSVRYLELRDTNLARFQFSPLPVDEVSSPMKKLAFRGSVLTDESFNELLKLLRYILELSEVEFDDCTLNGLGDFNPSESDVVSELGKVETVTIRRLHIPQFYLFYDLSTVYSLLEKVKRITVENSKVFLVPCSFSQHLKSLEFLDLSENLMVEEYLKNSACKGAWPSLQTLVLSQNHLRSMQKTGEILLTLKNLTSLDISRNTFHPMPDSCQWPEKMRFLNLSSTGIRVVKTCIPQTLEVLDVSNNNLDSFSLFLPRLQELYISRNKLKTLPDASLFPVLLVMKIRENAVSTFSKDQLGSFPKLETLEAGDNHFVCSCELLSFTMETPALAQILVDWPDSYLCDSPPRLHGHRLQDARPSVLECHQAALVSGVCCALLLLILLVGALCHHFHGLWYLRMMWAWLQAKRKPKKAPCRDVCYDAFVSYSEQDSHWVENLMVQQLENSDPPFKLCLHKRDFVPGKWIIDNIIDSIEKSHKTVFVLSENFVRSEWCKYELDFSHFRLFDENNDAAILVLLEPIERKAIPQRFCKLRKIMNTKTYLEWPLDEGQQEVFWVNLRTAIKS
T2 sequence (Q9Y2C9 32-796 partner): as the sequence (Q9Y2C9 32-796 partner) above

| SMILES | Average optical density (650 nm) (human TLR2; 0.12 pg/mL) | optical density (650 nm) (human TLR2; 0.12 pg/mL) | Average optical density (650 nm) (human TLR2; 0.49 pg/mL) | optical density (650 nm) (human TLR2; 0.49 pg/mL) | Average optical density (650 nm) (human TLR2; 1.95 pg/mL) | optical density (650 nm) (human TLR2; 1.95 pg/mL) | Average optical density (650 nm) (human TLR2; 7.81 pg/mL) | optical density (650 nm) (human TLR2; 7.81 pg/mL) | Average optical density (650 nm) (human TLR2; 31.25 pg/mL) | optical density (650 nm) (human TLR2; 31.25 pg/mL) | Average optical density (650 nm) (human TLR2; 125 pg/mL) | optical density (650 nm) (human TLR2; 125 pg/mL) | Average optical density (650 nm) (human TLR2; 500 pg/mL) | optical density (650 nm) (human TLR2; 500 pg/mL) | stimulatory / agonist activity for hTLR2 (in words) (human TLR2) | fold induction at 120 fg/mL (human TLR2; 0.12 pg/mL) | fold induction at 490 fg/mL (human TLR2; 0.49 pg/mL) | fold induction at 1.95 pg/mL (human TLR2; 1.95 pg/mL) | fold induction at 7.81 pg/mL (human TLR2; 7.81 pg/mL) | fold induction at 31.25 pg/mL (human TLR2; 31.25 pg/mL) | also measured |
| --- | --- | --- | --- | --- | --- | --- | --- | --- | --- | --- | --- | --- | --- | --- | --- | --- | --- | --- | --- | --- | --- |
| CCCCCCCCCCCCCC[C@@H](C)C(=O)OCC[C@H](CSC[C@H](N)C(=O)N[C@@H](CO)C(=O)NCCOCCOCCOCCOCCOCCOCCOCCOCCOCCOCCOCCOCCOCCOCCOCCOCCOCCOCCOCCOCCOCCOCCOCCOCCOCCOCCOCCOCCC(=O)NCC(N)=O)OC(=O)[C@H](C)CCCCCCCCCCCCCC [Compound B14] | 0.823 | 0.826 and 0.869 and 0.774 | 1.342 | 1.256 and 1.364 and 1.406 | 2.018 | 1.994 and 2.061 and 2.000 | 2.562 | 2.569 and 2.545 and 2.571 | 2.744 | 2.820 and 2.720 and 2.691 | 2.814 | 2.928 and 2.800 and 2.713 | 2.759 | 2.722 and 2.765 and 2.791 | stimulatory activity | 18.7 | 25.5 | 28 | 33 | 33.7 | fold induction at 0.000125 µg/mL (human TLR2; 125 pg/mL): 35.2; fold induction at 0.0005 µg/mL (human TLR2; 500 pg/mL): 33.9; EC50 (human TLR2): 0.264 nM; stimulatory / agonist activity for mTLR2 (in words) (mouse TLR2): stimulatory activity; stimulatory response in HEK-Blue Null1 (human) cells (in words) (HEK-Blue Null1 cells): not observed; stimulatory response in HEK-Blue Null2 (mouse) cells (in words) (HEK-Blue Null2 cells): not observed; stability under accelerated storage conditions (in words) [1]: excellent stabilities |
| CCCCCCCCCCCCCC[C@H](C)C(=O)OCC[C@H](CSC[C@H](N)C(=O)N[C@@H](CO)C(=O)NCCOCCOCCOCCOCCOCCOCCOCCOCCOCCOCCOCCOCCOCCOCCOCCOCCOCCOCCOCCOCCOCCOCCOCCOCCOCCOCCOCCOCCC(=O)NCC(N)=O)OC(=O)[C@@H](C)CCCCCCCCCCCCCC [Compound B16] | 0.666 | 0.688 and 0.591 and 0.718 | 1.099 | 1.080 and 1.097 and 1.121 | 1.521 | 1.478 and 1.513 and 1.573 | 1.978 | 1.903 and 1.897 and 2.133 | 2.252 | 2.093 and 2.297 and 2.367 | 2.540 | 2.531 and 2.544 and 2.545 | 2.475 | 2.466 and 2.488 and 2.472 | stimulatory activity | 9.2 | 15.3 | 21.1 | 27.5 | 31.3 | fold induction at 0.000125 µg/mL (human TLR2; 125 pg/mL): 35.3; fold induction at 0.0005 µg/mL (human TLR2; 500 pg/mL): 34.4; EC50 (human TLR2): 0.504 nM; stimulatory / agonist activity for mTLR2 (in words) (mouse TLR2): stimulatory activity; stimulatory response in HEK-Blue Null1 (human) cells (in words) (HEK-Blue Null1 cells): not observed; stimulatory response in HEK-Blue Null2 (mouse) cells (in words) (HEK-Blue Null2 cells): not observed; stability under accelerated storage conditions (in words) [1]: excellent stabilities |
